From US6911465B1, “Anti-inflammatory indole derivatives” (AstraZeneca AB, priority 1999, dated 2005)
pEC50, pIC50, pKd: −log10 of the molar value. Where two headings read alike, the source gives them in different places.

Experiments:
MCP-1 receptor B (CCR2B) = biological target: T1, MCP-1 receptor B (CCR2B) (Homo sapiens, UniProt P41597); test: hMCP-1 receptor binding assay (125I-MCP-1, CHO-CCR2B cell membranes)
T1 construct: expressed in transfected cells; membrane fragments
T1 sequence (P41597 1-360 isoform P41597-2): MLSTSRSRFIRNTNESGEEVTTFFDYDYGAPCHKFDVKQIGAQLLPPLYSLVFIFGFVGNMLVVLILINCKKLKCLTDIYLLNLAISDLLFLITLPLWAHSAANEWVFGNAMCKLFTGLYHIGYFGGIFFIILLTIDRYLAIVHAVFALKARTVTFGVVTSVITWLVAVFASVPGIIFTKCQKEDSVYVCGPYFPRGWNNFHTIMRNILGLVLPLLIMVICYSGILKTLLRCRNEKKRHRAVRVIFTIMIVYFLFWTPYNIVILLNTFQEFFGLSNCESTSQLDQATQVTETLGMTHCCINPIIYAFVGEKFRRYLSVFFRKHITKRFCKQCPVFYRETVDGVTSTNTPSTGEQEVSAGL
Text: The MCP-1 receptor B (CCR2B) cDNA was cloned by PCR from THP-1 cell RNA using suitable oligonucleotide primers based on the published MCP-1 receptor sequences (Charo et al., 1994, Proc. Natl. Acad. Sci USA, 91, 2752). The resulting PCR products were cloned into vector PCR-II™ (In Vitrogen, San Diego, Calif.). Error free CCR2B cDNA was subcloned as a Hind III-Not I fragment into the eukaryotic expression vector pCDNA3 (In Vitrogen) to generate pCDNA3/CC-CKR2A and pCDNA3/CCR2B respectively.
Linearised pCDNA3/CCR2B DNA was transfected into CHO-K1 cells by calcium phosphate precipitation (Wigler et al., 1979, Cell, 16, 777). Transfected cells were selected by the addition of Geneticin Sulphate (G418, Gibco BRL) at 1 mg/mlo, 24 hours after the cells had been transfected. Preparation of RNA and Norther Blotting were carried out as described previously (Needham et al., 1995, Prot. Express. Purific., 6, 134). CHO-K1 clone 7 (CHO-CCR2B) was identified as the highest MCP-1 receptor B-expressor. […]
^125I MCP-1 was preapred using Bolton and Hunter conjugation (Bolton et al., 1973, Biochem. J., 133, 529; Amersham International plc]. Equilibrium binding assays were carried out using the method of Ernst et al., 1994, J. Immunol., 152, 3541. Briefly, varying amounts of ^125I-labeled MCP-1 were added to 7 μg of purified CHO-CCR2B cell membranes in 100 μl of Binding Buffer. After 1 hour incubation at room temperature the binding reaction mixtures wre filtered and washed 5 times through a plate washer (Brandel MLR-96T Cell Harvester) using ice cold Binding Buffer. Filter mats (Brandel GF/B) were pre-soaked for 60 minutes in 0.3% polyethyleneimine prior to use. Following filtration individual filters were separated into 3.5 ml tubes (Sarsted No. 55.484) and bound ^125I-labeled MCP-1 was determined (LKB 1277 Gammamaster). […] Non-specific binding was determined by the incinsion of a 200-fold molar excess of unlabelled MCP-1 in the reaction. […]

THP-1 cells [1] = test: hMCP-1 mediated chemotaxis of THP-1 cells; assay type: cell-based, human; conditions: biphasic response
Procedure: In vitro chemotaxis assays were performed using the human monocytic cell line THP-1. Cell migration through polycarbonate membranes was measured by enumerating those passing through either directly by Coulter counting or indirectly by use of a colourimetric viability assay measuring the cleavage of a tetrazolium salt by the microchondrial respiratory chain (Scudiero D. A. et al. 1988, Cancer Res., 48, 4827-4833).
Chemoattractants were introduced into a 96-well microtiter plate which forms the lower well of a chemotaxis chamber fitted with a PVP-free 5 μm poresize polycarbonate adhesive framed filter membrane (NeuroProbe MB series, Cabin John, MD 20818, USA) according to the manufacturer's instructions. […] The plate was incubated at 37° C. for 3 h and the absorbance of the soluble formazan product was read on a microtiter plate reader at 450 nm. The data was input into a spreadsheet, corrected for any random migration in the absence of chemoattractant and the average absorbance values, standard error of the mean, and significance tests were calculated. hMCP-1 induced concentration dependent cell migration with a characteristic biphasic response, maximal […].

THP-1 cells [2] = test: MCP-1 mediated calcium flux in THP-1 cells; assay type: cell-based, human; conditions: stimulation of THP-1 cells, FURA-2, approximate; read-out: EC50 for rise in [Ca2+]i
Procedure: The human monocytic cell line THP-1 was grown in a synthetic cell culture medium RPMI 1640 supplemented with 10% foetal calf serum, 6 mM glutamine and Penicillin-Streptomycin (at 50 μg streptomycin/ml, Gibco BRL). THP-1 cells were washed in HBSS (lacking Ca^2+ and Mg^2+)+1 mg/ml BSA and resuspending in the same buffer at a density of 3×10^6 cells/ml. The cells were then loaded with […] FURA-2/AM for 30 min at 37° C., washed twice in HBSS, and resuspended in 1×10^6 cells/ml. THP-1 cell suspension (0.9 ml) was added to a 5 ml disposable curvette containing a magnetic stirrer bar and 2.1 ml of prewarmed (37° C.) HBSS containing 1 mg/ml BSA, 1 mM MgCl2 and 2 mM CaCl2. The cuvette was placed in a fluorescence spectrophootmeter (Perkin Elmer, Norwalk, Conn.) and preincubated for 4 min at 37° C. with stirring. Fluorescence was recorded over 70 sec and cells wre stimulated by addition of hMCP-1 to the curvette after 10 sec. [Ca^2+]i was measured by excitation at 340 nm and 380 nm alternately and subsequent measurement of the intensity of the fluorescence emission at 510 nm. […] Rmax is the maximal fluorescence ratio determined after additional of […] lonomycin, […] ratio determined by the subsequent addition of a Ca^2+ free solution containing 5 mM EGTA, and Sf2/Sb2 is the ratio of fluorescence values at 380 nm excitation determined at Rmin and Rmax, respectively. […]

pIC50 (MCP-1 receptor B (CCR2B); competition with 100 pM labelled MCP-1, CHO-CCR2B membranes, 0.01-50 μM, read-out: IC50 in hMCP-1 receptor binding assay)	pIC50 (MCP-1 receptor B (CCR2B); cold competition, unlabelled MCP-1 vs 100 pM 125I-MCP-1, CHO-CCR2B membrane fragments, read-out: IC50 of MCP-1 binding to CCR2B)	pKd (MCP-1 receptor B (CCR2B); equilibrium binding, CHO-CCR2B membrane fragments)	pEC50 (THP-1 cells [2])	Molecule	concentration of maximal cell migration (THP-1 cells [1])
5.77	–	–	–	O=C(CN1CCOCC1)Nc1cccc2c1cc(C(=O)O)n2Cc1ccc(Cl)c(Cl)c1 [Compound 2]	–
–	9.96	9.92	~8.70	MCP-1: Human Monocyte Chemoattractant Protein-1, the chemokine ligand of the CCR2 receptor	0.5-1.0 nm
